Read-outs that look alike come from different tables or passages of the source.

In one test the test system is hind paws of male rats. The test can be described thus: Anti-inflammatory effect: acute carragheenin edema method. In kind it is in vivo. The settings on record: Rattus norvegicus; for inhibition in vivo at 100 mg/kg: read-out: Anti-inf.: edema inhibition rate. The method, then:
The edema was induced by subcutaneous injection of 1% carragheenin suspension in saline to the hind paws of male rats weighting 150 to 180 g. Each sample was orally given at the dosage of 100 mg/kg just before the inoculation of carragheenin.

For the next test, the system named is platelet. The test can be described thus: Blood platelet aggregation inhibiting effect (collagen-induced). As to conditions: Oryctolagus cuniculus, Platelet; 10^-4 mole, collagen inducer, rabbit PRP; read-out: Blood platelet agg. inh.: percentage inhibition of platelet aggregation. In kind it is cell-based, rabbits. From the text: Male rabbits (Japan original white strain 3.3 to 3.6 kg) were anesthetized with Thiopental sodium and blood was sampled from the carotid artery.

The next test has as its system thrombus. The test can be described thus: Inhibiting effect on thrombosis (by-pass between left juglar vein and right carotid artery, silk thread). In kind it is in vivo, SD type male rates. The settings on record: Rattus norvegicus, read-out: Thrombosis inh.: thrombosis inhibition rate. The method, then: The inhibiting effects of the samples of the invention on thrombosis were tested by the following test method.
A 0.5 ml of 50 μ/ml of the heparin physiological saline was added through the polyethylene tube before the first blood circulation. After the blood circulation for 15 minutes, the circulation was stopped in the middle of the tubing at artery side with a pinch cock.
Then, 0.2 ml of the heparin physiological saline was added to remove the blood coagulates on the tubing wall and another new polyethylene tubing filled with the heparin solution and containing a piece of new silk thread was attached between the venous and artery tubing ends.
The blood circulation was reestablished by opening the pinch cock. After 15 minutes, the wet weight of thrombus on the silk thread was similarly measured.
In the same manner, the third circulation was performed and wet weight of thrombus measured.
The amount of thrombus was given by the equation A. [formula] Each sample was suspended in an aqueous solution of sodium carboxymethyl cellulose and the oral dose of the suspension (100 mg/kg) was performed at 5 hours before the first blood circulation.
The amount of thrombus after the oral dose of the sample was calculated in the same manner as that of control circulations.
The thrombosis inhibition rate was given by the equation B. [formula]

In a further test the test system is male mice. The experiment in a line: Analgesic effect: painful stretchings following intraperitoneal 0.7% acetic acid. As to conditions: Mus musculus, po, read-out: Analgesic: percentage diminition of times of painful stretching.
[1] abbreviates: 100 mg/kg oral, carragheenin edema, male rats (Table 2).
Where [2] appears, read: 100 mg/kg oral, 5 hours before first blood circulation, rats.

Description for male mice: Each sample was orally administered in the dosage of 100 mg/kg before injection of acetic acid.

Consider `CCCCc1ccc(C(=O)c2ccc(F)cc2C)cc1` [compound 46], for which the values for the inhibition in vivo at 100 mg/kg in the test with hind paws of male rats (setting [1]), in the test on thrombus (setting [2]) and in the test with male mice were 43.4%, 34.5% and 13.4%, respectively. The inhibition at 100 µM in the test on platelet turned out to be 16.5%.
On the same counts, the results for `CCc1ccc(C(=O)c2ccc(C)cc2)cc1` [compound 33] are 43.9%, 28.3%, 15.5% and 20.5%.
Consider `O=C(Cc1ccccc1)c1ccccc1` [compound 47], for which the inhibition in vivo at 100 mg/kg with hind paws of male rats (po) turned out to be 20.9%; with thrombus (po, 5 h) it was 15.6%; with male mice it was 13.1%. Further, the inhibition at 100 µM in the test with platelet was 18.3%.
In the case of `CCCc1ccc(C(=O)c2cccc(C)c2)cc1` [compound 87], the inhibition in vivo at 100 mg/kg is 18.7% with hind paws of male rats (setting [1]), 25.8% in the test with thrombus (setting [2]) and 11.2% in the test with male mice. Moreover, in the test with platelet, the inhibition at 100 µM worked out at 30.1%.
For the compound `CCCOc1ccc(C(=O)Cc2ccccc2)cc1` [compound 58], the inhibition in vivo at 100 mg/kg in the test with hind paws of male rats (setting [1]) stood at 15.3%; with thrombus (setting [2]) it was 14.6%; in the test with male mice it was 19.8%. For the same compound, the inhibition at 100 µM in the test with platelet was 20.1%.
Regarding `CCCCc1ccc(C(=O)c2ccccc2Cl)cc1` [compound 44], the figures for the inhibition in vivo at 100 mg/kg in the test on hind paws of male rats (setting [1]), in the test on thrombus (setting [2]) and in the test with male mice were 57.7%, 35.6% and 15.6%, respectively. Further, in the test with platelet, the inhibition at 100 µM was 10.5%.
The matching figures for `CCc1ccc(CC)c(C(=O)c2ccccc2)c1` [compound 80]: 31.9%, 28.5%, 16.2% and 30.3%.
Take `CCCCc1ccc(C(=O)c2ccccc2)cc1` [compound 19]: the inhibition in vivo at 100 mg/kg in the test with hind paws of male rats (setting [1]) worked out at 63.4%; with thrombus (setting [2]) it was 7.9%; in the test with male mice it was 30.1%. Also, the inhibition at 100 µM in the test on platelet is 18.6%.
With `O=C(c1ccc(F)cc1)c1ccc(F)cc1` [compound 114], the inhibition in vivo at 100 mg/kg stood at 33.2% in the test on hind paws of male rats (setting [1]), 31.1% in the test with thrombus (setting [2]) and 18.3% with male mice. In addition, the inhibition at 100 µM in the test with platelet was determined as 26.8%.
With `Cc1ccc(C(=O)c2ccccc2)cc1` [compound 65], the figures for the inhibition in vivo at 100 mg/kg with hind paws of male rats (setting [1]), in the test on thrombus (setting [2]) and in the test with male mice were 17.3%, 19.2% and 10.9%, respectively. Also, the inhibition at 100 µM with platelet amounted to 21%.
Take `O=C(c1ccccc1)c1ccccc1F` [compound 15]: the inhibition in vivo at 100 mg/kg in the test on hind paws of male rats (setting [1]) was 61.4%; in the test with thrombus (setting [2]), 26.5%; in the test with male mice, 18.5%. For the same compound, in the test on platelet, the inhibition at 100 µM was 23.2%.
Take `CCc1ccc(C(=O)c2ccc(OC)cc2)cc1` [compound 107]: the inhibition in vivo at 100 mg/kg with hind paws of male rats (po) was 20.3%; in the test on thrombus (setting [2]), 19.6%; with male mice it was 13.2%. In addition, in the test on platelet, the inhibition at 100 µM stood at 20.3%.
As for `CCCCc1ccc(C(=O)c2ccccc2C)cc1` [compound 40], the figures for the inhibition in vivo at 100 mg/kg in the test with hind paws of male rats (setting [1]), with thrombus (setting [2]) and in the test with male mice were 58.1%, 30.3% and 20.3%, respectively. Further, in the test on platelet, the inhibition at 100 µM was determined as 11.9%.
Consider `CC(C)Cc1ccc(C(=O)c2ccccc2)cc1` [compound 67], for which the inhibition in vivo at 100 mg/kg came to 20% with hind paws of male rats (setting [1]), 17.3% with thrombus (setting [2]) and 19.1% in the test on male mice. Besides, the inhibition at 100 µM with platelet turned out to be 18.5%.
Consider `Cc1ccc(C(=O)c2ccccc2)cc1C` [compound 72], for which the figures for the inhibition in vivo at 100 mg/kg in the test on hind paws of male rats (setting [1]), with thrombus (setting [2]) and in the test with male mice were 29.9%, 30.2% and 23.4%, respectively. In the test with platelet, the inhibition at 100 µM is 28.7%.
Consider `CCCCc1ccc(CCCC)c(C(=O)c2ccccc2)c1` [compound 77], for which the inhibition in vivo at 100 mg/kg in the test on hind paws of male rats (setting [1]) stood at 13.2%; in the test with thrombus (setting [2]) it was 17.5%; in the test on male mice, 10.8%. Moreover, the inhibition at 100 µM with platelet was determined as 25.1%.
With `O=C(c1ccccc1)c1ccc(O)cc1` [compound 109], the inhibition in vivo at 100 mg/kg with hind paws of male rats (setting [1]) is 12.7%; with thrombus (setting [2]), 20.3%; with male mice, 2.6%. For the same compound, the inhibition at 100 µM with platelet is 13.7%.
The matching figures for `CCCc1ccc(C(=O)c2ccc(CC)cc2)cc1` [compound 112]: 14.1%, 15.5%, 6.7% and 11.8%.
The matching figures for `CCCCCCCCCc1ccc(C(=O)c2ccccc2)cc1` [compound 70]: 23.2%, 10%, 7% and 17.2%.
In the case of `CCCCc1ccc(C(=O)c2ccc(C)cc2)cc1` [compound 35], the inhibition in vivo at 100 mg/kg came out at 48.5% with hind paws of male rats (setting [1]), 2.65% with thrombus (setting [2]) and 17.8% with male mice. Further, the inhibition at 100 µM in the test with platelet worked out at 11.3%.
Regarding `CCCCCCCCCCCCc1ccc(C(=O)Cc2ccccc2)cc1` [compound 52], the values for the inhibition in vivo at 100 mg/kg in the test with hind paws of male rats (setting [1]), in the test on thrombus (setting [2]) and in the test with male mice were 25.5%, 10.1% and 12.5%, respectively. Besides, the inhibition at 100 µM in the test with platelet was 6.8%.
As for `O=C(c1ccccc1)c1ccccc1` [compound 27], the ED50 with hind paws of male rats (po, read-out: 50% inhibition ED50 (values in brackets)) stood at 120 mg/kg. The inhibition in vivo at 100 mg/kg came to 47.7% in the test on hind paws of male rats (po); 25.9% with thrombus (po, 5 h); 13.2% in the test with male mice. The inhibition at 100 µM in the test on platelet is 25.7%.
On to `CCCc1ccc(C(=O)c2ccc(OC)cc2)cc1` [compound 93], for which the figures for the inhibition in vivo at 100 mg/kg in the test with hind paws of male rats (setting [1]), with thrombus (setting [2]) and with male mice were 20.4%, 26.8% and 14.7%, respectively. For the same compound, the inhibition at 100 µM in the test on platelet came out at 24.4%.
On the same counts, the results for `Cc1cc(C)c(C(=O)c2ccccc2)c(C)c1C` [compound 79] are 33.2%, 31.5%, 20.8% and 26.8%.
The matching figures for `CCCCCCc1ccc(C(=O)C(=O)c2ccccc2)cc1` [compound 56]: 14.9%, 15.1%, 20.5% and 20.3%.
Turning to `CCCc1ccc(C(=O)Cc2ccccc2)cc1` [compound 49], the inhibition in vivo at 100 mg/kg in the test with hind paws of male rats (setting [1]) was 10.7%; with thrombus (setting [2]), 13.4%; in the test on male mice, 18.2%. For the same compound, the inhibition at 100 µM with platelet was 28.5%.
`CCCCc1ccc(C(=O)c2cccc(C)c2)cc1` [compound 88]: the inhibition in vivo at 100 mg/kg in the test with hind paws of male rats (setting [1]) worked out at 21.6%; in the test on thrombus (setting [2]), 29.3%; in the test with male mice it was 5.6%. Moreover, the inhibition at 100 µM in the test on platelet was 24.5%.
Take `CCCCCOc1ccc(C(=O)Cc2ccccc2)cc1` [compound 59]: the values for the inhibition in vivo at 100 mg/kg with hind paws of male rats (setting [1]), in the test on thrombus (setting [2]) and in the test with male mice were 20.7%, 14.1% and 22.8%, respectively. The inhibition at 100 µM in the test with platelet came out at 25.6%.
With `CCCc1ccc(C(=O)c2ccc(C)cc2C)cc1` [compound 96], the inhibition in vivo at 100 mg/kg in the test on hind paws of male rats (setting [1]) was determined as 26.1%; in the test with thrombus (setting [2]) it was 36.7%; in the test with male mice, 18.9%. In addition, the inhibition at 100 µM in the test with platelet was determined as 28.5%.
As to `CCCCCc1ccc(C(=O)c2ccc(CCC)cc2)cc1` [compound 99], the inhibition in vivo at 100 mg/kg in the test on hind paws of male rats (setting [1]) turned out to be 34.1%; in the test with thrombus (setting [2]) it was 30.3%; in the test on male mice it was 15.5%. Also, in the test on platelet, the inhibition at 100 µM was determined as 29.5%.
With `Cc1ccc(C(=O)c2ccc(C)cc2)cc1` [compound 83], the inhibition in vivo at 100 mg/kg in the test with hind paws of male rats (setting [1]) was 20%; with thrombus (setting [2]) it was 19.3%; with male mice, 12.1%. Also, the inhibition at 100 µM with platelet amounted to 27.6%.
`CCCCc1ccc(C(=O)c2ccc(CCCC)cc2)cc1` [compound 43]: the inhibition in vivo at 100 mg/kg in the test on hind paws of male rats (setting [1]) turned out to be 34%; in the test with thrombus (setting [2]), 86%; with male mice, 0%. For the same compound, in the test with platelet, the inhibition at 100 µM turned out to be 3.5%.
In the case of `CCCCCCCc1ccc(C(=O)c2ccc(CCCC)cc2)cc1` [compound 100], the inhibition in vivo at 100 mg/kg with hind paws of male rats (setting [1]) is 14%; with thrombus (setting [2]) it was 27.6%; with male mice it was 10%. Moreover, the inhibition at 100 µM with platelet worked out at 22.4%.

The values are drawn from patent US4145444A, “Anti-inflammatory agent of benzoyl derivative” (priority 1977, dated 1979).
